This passage reports AC50, EC50 and CC50 results from ChEMBL document CHEMBL1201862, “PubChem BioAssay data set” (2004).

Activity calls are given as the source filed them. Bounds are passed on as bounds.

In experiment [1] the target is T1, Cytochrome P450 1A2 (Homo sapiens, UniProt P05177).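 Further: PubChem cytochrome P450 panel assay, CYP1A2 panel member.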
T1 sequence (P05177 whole entry): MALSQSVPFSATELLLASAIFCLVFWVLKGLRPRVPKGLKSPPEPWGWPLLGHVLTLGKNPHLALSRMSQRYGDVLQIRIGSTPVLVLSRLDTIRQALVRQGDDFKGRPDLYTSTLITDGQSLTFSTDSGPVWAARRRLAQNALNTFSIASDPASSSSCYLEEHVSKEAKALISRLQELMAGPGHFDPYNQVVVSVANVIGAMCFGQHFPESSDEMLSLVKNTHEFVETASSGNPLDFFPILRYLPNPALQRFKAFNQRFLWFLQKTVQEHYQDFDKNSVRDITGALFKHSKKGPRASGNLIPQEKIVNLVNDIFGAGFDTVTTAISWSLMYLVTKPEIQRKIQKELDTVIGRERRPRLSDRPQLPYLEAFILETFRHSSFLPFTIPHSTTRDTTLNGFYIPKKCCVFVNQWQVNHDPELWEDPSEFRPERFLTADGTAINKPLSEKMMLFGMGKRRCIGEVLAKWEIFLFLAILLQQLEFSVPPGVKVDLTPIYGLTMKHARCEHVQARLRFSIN

In experiment [2] the target is Voltage-gated inwardly rectifying potassium channel KCNH2 (Homo sapiens, UniProt Q12809). The following applies: Potency.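 Further: confirmatory quantitative high-throughput screen measuring inhibition of hERG channel activity.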
Sequence of Voltage-gated inwardly rectifying potassium channel KCNH2 (Q12809 whole entry): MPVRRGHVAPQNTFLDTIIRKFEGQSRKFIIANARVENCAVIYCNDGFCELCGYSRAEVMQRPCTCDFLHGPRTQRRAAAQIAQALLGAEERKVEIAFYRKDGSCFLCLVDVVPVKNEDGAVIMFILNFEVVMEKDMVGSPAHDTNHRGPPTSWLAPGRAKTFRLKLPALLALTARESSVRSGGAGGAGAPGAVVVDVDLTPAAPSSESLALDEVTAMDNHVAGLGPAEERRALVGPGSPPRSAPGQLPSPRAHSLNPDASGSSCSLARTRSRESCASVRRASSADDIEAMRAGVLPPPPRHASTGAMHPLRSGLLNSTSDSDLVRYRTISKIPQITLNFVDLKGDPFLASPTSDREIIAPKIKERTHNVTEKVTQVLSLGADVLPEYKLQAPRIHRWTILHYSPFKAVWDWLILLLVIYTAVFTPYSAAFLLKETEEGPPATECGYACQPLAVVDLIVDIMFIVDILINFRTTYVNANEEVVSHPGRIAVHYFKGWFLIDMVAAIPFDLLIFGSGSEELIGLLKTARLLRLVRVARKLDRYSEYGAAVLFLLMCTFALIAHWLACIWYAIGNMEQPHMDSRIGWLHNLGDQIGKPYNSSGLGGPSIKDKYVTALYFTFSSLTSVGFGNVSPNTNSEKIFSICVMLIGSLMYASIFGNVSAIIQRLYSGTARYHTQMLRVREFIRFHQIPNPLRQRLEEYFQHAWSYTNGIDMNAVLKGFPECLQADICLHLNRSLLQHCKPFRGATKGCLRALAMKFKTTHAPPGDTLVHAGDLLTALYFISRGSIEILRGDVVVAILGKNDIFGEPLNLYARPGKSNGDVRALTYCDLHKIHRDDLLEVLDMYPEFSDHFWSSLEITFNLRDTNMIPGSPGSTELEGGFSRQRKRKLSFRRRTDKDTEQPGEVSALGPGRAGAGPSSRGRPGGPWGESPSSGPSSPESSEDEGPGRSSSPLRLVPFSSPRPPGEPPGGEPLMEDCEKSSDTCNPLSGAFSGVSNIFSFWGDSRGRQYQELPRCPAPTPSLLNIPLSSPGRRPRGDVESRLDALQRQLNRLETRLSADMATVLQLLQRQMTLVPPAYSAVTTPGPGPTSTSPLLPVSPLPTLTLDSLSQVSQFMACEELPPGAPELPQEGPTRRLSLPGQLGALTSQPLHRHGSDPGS
In experiment [3] the target is Beta-2 adrenergic receptor (Homo sapiens, UniProt P07550). The experiment is described as follows: beta2AR agonists driving receptor internalization, dose response, cell-based, FAP fluorogen, flow cytometry, cherry pick 1 (AID 588763). In kind it is functional.
Sequence of Beta-2 adrenergic receptor (P07550 whole entry): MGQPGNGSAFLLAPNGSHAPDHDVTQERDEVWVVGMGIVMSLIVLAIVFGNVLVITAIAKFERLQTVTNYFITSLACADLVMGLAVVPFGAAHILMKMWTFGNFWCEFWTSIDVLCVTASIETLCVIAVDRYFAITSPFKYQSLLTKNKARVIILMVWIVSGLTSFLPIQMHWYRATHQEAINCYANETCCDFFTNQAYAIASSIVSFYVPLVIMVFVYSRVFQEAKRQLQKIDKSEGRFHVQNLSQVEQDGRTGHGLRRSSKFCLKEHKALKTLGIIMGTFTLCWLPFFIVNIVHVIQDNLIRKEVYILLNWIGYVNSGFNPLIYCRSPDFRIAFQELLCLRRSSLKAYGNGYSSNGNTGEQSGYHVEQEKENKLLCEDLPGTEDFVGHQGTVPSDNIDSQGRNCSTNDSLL
Experiment [4] concerns the target T2, Endoribonuclease toxin MazF (Escherichia coli K-12, UniProt P0AE70).
T2 sequence (P0AE70 whole entry): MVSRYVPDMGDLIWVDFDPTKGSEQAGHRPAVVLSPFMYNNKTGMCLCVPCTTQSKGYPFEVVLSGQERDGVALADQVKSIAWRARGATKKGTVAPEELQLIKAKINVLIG
Briefly: MazF endoribonuclease activators, SAR follow-up, biochemical, fluorescence, single-stranded RNA substrate (AID 588603). The experiment is classed as functional.

For experiment [5], the target named is T2, Endoribonuclease toxin MazF. Briefly: MazF toxin RNase activators, dose response, biochemical, fluorescence, single-stranded RNA substrate, uHTS hits (AID 588481). The experiment is classed as functional.
Experiment [6] has as its system MEF. Briefly: SAR analysis of small molecule cytotoxicity of MazEF TA System activators in embryonic fibroblast (MEF) cells. [Related pubchem assays (depositor defined):AID504720, AID504743]. In kind it is functional. The following applies: Mus musculus.
Experiment [7] has as its target T2, Endoribonuclease toxin MazF. Briefly: SAR analysis of small molecule activators of the MazEF TA System via a fluorescence-based single-stranded RNase assay counterscreen. [Related pubchem assays (depositor defined):AID504720, AID504743]. The experiment is classed as functional.
For experiment [8] the target is unchanged. Briefly: fluorescent RNA oligo signal without MazF, dose response, counter-screen for MazEF activator project, biochemical, fluorescence, single-stranded RNase substrate (AID 588502). In kind it is functional.
Experiment [9] concerns BJ. The experiment is described as follows: cytotoxicity toward BJ-TERT fibroblasts, dose response, cell-based, RAS-independent, luminescence (AID 1933). In kind it is functional. The following applies: Homo sapiens.
The test system of experiment [10] is BJ. The experiment is described as follows: cells. In kind it is functional, cell-based. The following applies: Homo sapiens.
Experiment [11] relates to BJ. The experiment is described as follows: cytotoxicity toward BJ-TERT-LT-ST fibroblasts, dose response, cell-based, RAS-independent, luminescence (AID 1935).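 Further: BJ fibroblasts immortalized with TERT plus LT and ST oncogenes.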 In kind it is functional. The following applies: Homo sapiens.
Experiment [12] in a line: cytotoxicity toward DRD oncogenic fibroblasts, dose response, cell-based, non-viral oncogenic, luminescence (AID 1934). The experiment is classed as functional. The following applies: Homo sapiens.
In experiment [13] the target is Cytochrome P450 2C19 (Homo sapiens, UniProt P33261). The experiment is described as follows: Cytochrome panel assay with activity outcomes. Panel member name: p450-cyp2c19 Compounds with AC50 equal or less than 10 uM are considered active. The experiment is classed as functional. The following applies: read-out: AC50.
Sequence of Cytochrome P450 2C19 (P33261 whole entry): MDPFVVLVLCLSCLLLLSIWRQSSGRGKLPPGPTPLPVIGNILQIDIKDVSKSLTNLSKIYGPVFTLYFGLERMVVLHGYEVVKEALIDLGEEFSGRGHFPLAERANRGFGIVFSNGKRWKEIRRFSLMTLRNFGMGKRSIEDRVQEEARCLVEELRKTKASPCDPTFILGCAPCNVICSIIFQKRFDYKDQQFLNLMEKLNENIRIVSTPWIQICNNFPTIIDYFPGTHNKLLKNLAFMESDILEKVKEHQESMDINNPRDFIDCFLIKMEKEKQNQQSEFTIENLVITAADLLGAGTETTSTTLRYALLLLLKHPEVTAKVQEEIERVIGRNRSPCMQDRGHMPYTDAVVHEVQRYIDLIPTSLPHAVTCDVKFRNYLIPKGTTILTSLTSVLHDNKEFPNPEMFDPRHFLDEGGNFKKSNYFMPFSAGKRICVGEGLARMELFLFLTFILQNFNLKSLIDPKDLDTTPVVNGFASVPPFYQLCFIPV
Experiment [14] concerns BJ. The experiment is described as follows: cytotoxicity toward Ras-transformed BJeLR fibroblasts, dose response, cell-based, alamar blue fluorescence, cherrypicked samples (AID 2631).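 Further: confirmatory dose-response assay in RAS-dependent BJ fibroblasts engineered with TERT, LT and ST, with cytotoxicity read by fluorescence.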 In kind it is functional. The following applies: Homo sapiens.
Experiment [15] relates to INS1. Briefly: beta cell apoptosis inhibitors, cytokine rescue, dose response, luminescence, retest (AID 449756).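 Further: cell death triggered by IL-1 beta plus TNF-alpha plus IFN-gamma mixture; protective hits raise ATP signal compared with cytokine alone wells.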 In kind it is functional, cell-based. The following applies: Rattus norvegicus.
In experiment [16] the target is Cytochrome P450 2C9 (Homo sapiens, UniProt P11712).
Sequence of Cytochrome P450 2C9 (P11712 whole entry): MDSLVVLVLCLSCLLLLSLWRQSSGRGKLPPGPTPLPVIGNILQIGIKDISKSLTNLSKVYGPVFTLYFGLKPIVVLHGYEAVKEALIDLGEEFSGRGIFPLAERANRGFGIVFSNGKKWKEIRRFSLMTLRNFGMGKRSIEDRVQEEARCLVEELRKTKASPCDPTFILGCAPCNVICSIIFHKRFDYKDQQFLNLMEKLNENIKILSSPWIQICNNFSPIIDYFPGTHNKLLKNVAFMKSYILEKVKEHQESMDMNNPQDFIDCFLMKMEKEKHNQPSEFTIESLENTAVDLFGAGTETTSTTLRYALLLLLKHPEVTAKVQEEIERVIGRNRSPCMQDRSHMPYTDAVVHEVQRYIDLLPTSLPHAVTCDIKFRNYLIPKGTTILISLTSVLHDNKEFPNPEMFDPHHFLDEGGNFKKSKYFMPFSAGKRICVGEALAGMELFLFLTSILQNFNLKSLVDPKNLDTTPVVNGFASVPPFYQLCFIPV

Regarding `CC(=O)N[C@@H](Cc1c[nH]c2ccccc12)C(=O)OCc1cc(C(F)(F)F)cc(C(F)(F)F)c1` [L-732138], the half-maximal activity concentration (AC50) in experiment [1] is 31.6 µM (inconclusive); in [2] it was 12.6 µM (inconclusive).
For `O=C(Cc1ccccc1)NC1(Cc2ccc(O)cc2)CCCCC1`, the half-maximal effective concentration (EC50) in experiment [3] was 7.47 µM (active).
Take `N#Cc1ccc(N2C(=O)[C@@H]3C(C(=O)c4ccc5ccccc5n4)=NN[C@@H]3C2=O)cc1`: the concentration giving a half-maximal response (EC50) was 7.74 µM (active) in [4], 15.1 µM (active) in experiment [5], > 99 µM (inactive) in [7] and 0.271 µM (active) in [8]. The CC50 in experiment [6] is > 99 µM (inactive).
`O=C(COc1ccc([N+](=O)[O-])cc1)Nc1ccc(C(=O)NCc2cccnc2)cc1`: the concentration for a half-maximal effect (EC50) was > 150 µM (not active) in [9]; 12.8 µM (inconclusive) in [10]; > 150 µM (not active) in experiment [11]; > 150 µM (not active) in experiment [12]; 2.51 µM (inconclusive) in experiment [14]. Moreover, the figures for the half-maximal activity concentration (AC50) in [13], in experiment [15] and in experiment [16] were 7.94 µM (inconclusive), < 0.195 µM (active) and 22.4 µM (inconclusive), respectively.
